Measurements reported in patent publication US11952364B2, “TRK inhibitors useful as anticancer drugs” (TYLIGAND BIOSCIENCE (SHANGHAI) LIMITED, priority 2018, dated 2024).
Where two headings read alike, the source gives them in different places.

Test system: Ba/F3 LMNA-NTRK1-G667C cells
Assay: Proliferation of Ba/F3 LMNA-NTRK1-G667C cells (CellTiter-Glo)
Type: cell-based, mouse
Details: Mus musculus, read-out: Ba/F3 LMNA-NTRK1-G667C, IC50
Text: Ba/F3 LMNA-NTRK1-G667C is a stable transgenic cell line constructed by KYinno Biotechnology Co., Ltd. on mouse primary B cell Ba/F3 wherein NTRK1 has a mutation of G to Cat position 667 and is highly expressed and fused with LMNA to form LMNA-NTRK1-G667C. • [Test method]: Promega's CellTiter-Glo® Luminescent Cell Viability Assay kit was used to evaluate the inhibitory activity of the compounds on the proliferation of Ba/F3 LMNA-NTRK1-G667C cells. • [Instrument]: Spectramax M3 multifunctional microplate reader from Molecular Devices. • [Test materials]: Ba/F3 LMNA-NTRK1-G667C cell line (constructed by KYinno Co., Ltd. (Beijing)), 96-well transparent flat-bottomed black-walled cell culture plate (Corning, cat #3603), RPMI-1640 media (GE, cat #SH30027.01), fetal bovine serum FBS (Thermo Fisher, cat #10099-141), CellTiter-Glo® Luminescent Cell Viability Assay kit (Promega, cat #G7572), PBS (Solarbio, cat #P1020), DMSO (Sigma, cat #D2650). • [Experimental procedure]: When resuscitating Ba/F3 LMNA-NTRK1-G667C cells, the freezing tube was quickly shaken in a 37° C. water bath to melt within 1 minute. The thawed cell suspension was mixed uniformly with RPMI1640 medium containing 10% FBS, centrifuged at 1000 rpm for 5 minutes, and the supernatant discarded. 5 mL of complete medium (RPMI1640 medium with 10% FBS) was taken to resuspend the cell pellets, charged into a cell culture flask with a bottom area of 25 cm^2, and incubated in a cell incubator at 37° C., 95% humidity and 5% CO2. Cells were allowed to passage when the number of cells reached about 10^6 cells/mL. For cell passage, the old cell suspension was directly pipetted evenly, 1/5 of the cell suspension was kept, 4 mL of new complete medium was added, after pipetting evenly, the cell flask was placed in the cell incubator for further culturing. Cell plating was performed when the number of cells reached about 10^6 cells/mL again. For cell plating, 1/5 of the cell suspension was kept for further culturing as in the cell passage method, and the remaining 4/5 of the cell suspension was placed in a 15 mL centrifuge tube, detected for cell viability by Trypan blue exclusion method to ensure that cell viability was above 90%. A cell suspension with a density of 5.56×10^4 viable cells/mL was prepared with complete medium, and 90 μL of such cell suspension was added to a 96-well cell culture plate to obtain the cell density of 5000 viable cells/mL in the cell culture plate. A control group containing no cells, no compound and only complete medium (i.e. culture medium control) and a control group containing no compound but containing cells (i.e. cell control) were set. The cell plate was placed in a cell incubator overnight. The 10 mM compound stock solution in DMSO was first serially diluted with DMSO at a dilution factor of 3.16 times, to obtain 9 concentrations, and the 10th concentration was set as DMSO control without compound. Then, PBS was used to dilute the DMSO solutions of compounds of different concentrations, at a dilution factor of 100 times, so that the DMSO concentration in the compound solution of each concentration was 1%. Finally, 10 μL of each of the above solutions was added to the corresponding cell culture plate, so that the initial compound concentration was 10 μM, with the remaining concentrations being successively diluted at a dilution factor of 3.16 times, and the DMSO content in the cell culture plate was 0.1%. The cell plate was placed in a cell incubator and cultured for 72 hours. For endpoint detection, the CellTiter-Glo reagent was melted, and the cell plate was moved to room temperature to equilibrate for 30 minutes, added with 100 μL of CellTiter-Glo for each well, and shaken on an orbital shaker for 5 minutes to fully lyse the cells. The plate was kept at room temperature for 20 minutes to stabilize the luminescence signal, and the luminescence value of each well was scanned with a multi-functional microplate reader at full wavelength. • [Test samples] […]

COc1ccc(C(=O)Nc2ccc(Oc3cc4cnn(C)c4cc3-c3cn[nH]c3)c(F)c2)c(=O)n1-c1ccc(F)cc1 [Example 12, N-(3-fluoro-4-(1-methyl-6-(1H-pyrazol-4-yl)-1H-indazol-5-yloxy)phenyl)-1-(4-fluorophenyl)-6-methoxy-2-oxo-1,2-dihydropyridine-3-carboxamide] was tested, and the IC50 (BaF3, Table 4-1, separate test) was under 1 nM.
With CCn1ncc2cc(Oc3ccc(NC(=O)c4ccc(C)n(-c5ccc(F)cc5)c4=O)cc3F)c(-c3cn[nH]c3)cc21 [Example 3, N-(3-fluoro-4-(1-ethyl-6-(1H-pyrazol-4-yl)-1H-indazol-5-yloxy)phenyl)-1-(4-fluorophenyl)-6-methyl-2-oxo-1,2-dihydmpyridine-3-carboxamide] the IC50 (BaF3, 72 h, Table 4, 72 hours) was 1.6 nM.
In the case of Cn1ncc2cc(Oc3ccc(NC(=O)c4ccc(OC5CC5)n(-c5ccc(F)cc5)c4=O)cc3F)c(-c3cn[nH]c3)cc21 [Example 15, N-(3-fluoro-4-(1-methyl-6-(1H-pyrazol-4-yl)-1H-indazol-5-yloxy)phenyl)-1-(4-fluorophenyl)-6-cyclopropoxy-2-oxo-1,2-dihydropyridine-3-carboxamide], the IC50 (BaF3, Table 4-2, separate test) is reported as 10.8 nM.
